US20240124442A1, “TRICYCLIC-AMIDO-BICYCLIC PRMT5 INHIBITORS” (AMGEN INC., priority 2021, published 2024)

Key:
[1] = system: HCT116 MTAP null cells; experiment: HCT116 MTAP null cell line proliferation / cell viability (CellTiter-Glo, 6 days); assay type: cell-based; conditions: 144 h; HCT116 MTAP null cells, 6 days treatment, CellTiter-Glo cell viability; read-out: HCT-116 MTAP null IC50
How it was run: (§1)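 Isogenic HCT116 pair (parental and MTAP-knockout) in RPMI 1640 + 10% FBS, treated 6 days with 8–9-point 1:3 dilutions from 1 or 10 μM top, or 22-point 1:2 dilutions from 10 or 50 μM top. Viability by CellTiter-Glo luminescence; IC50 from 4-parameter logistic fit or sigmoidal fit with Hill slope fixed at −1.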

[2] = system: HCT116 WT cells; experiment: HCT116 WT (parent) cell line proliferation / cell viability (CellTiter-Glo, 6 days); assay type: cell-based; conditions: Homo sapiens, HCT-116, 144 h, 6 days treatment
How it was run: as §1

Row | Compound | IC50 [1] [nM] | IC50 [2] [nM]
1 | CCN(C(=O)c1ccc2nc(N)c3c(c2c1)COC3)[C@H]1COc2cc(C(F)(F)F)ccc21 (single isomer, unassigned) [Example 534] | 1730 | 23900
2 | Nc1nc2ccc(C(=O)N(CC3CC3)[C@H]3COc4cc(C(F)(F)F)ccc43)cc2c2c1COC2 (single isomer, unassigned) [Example 536] | 728 | 11700
3 | C[C@H]1OCc2c1c(N)nc1ccc(C(=O)N(C)[C@H]3COc4cc(C(F)(F)F)ccc43)cc21 (single isomer, unassigned) [Example 538] | 1840 | 23600
4 | CCN(C(=O)c1ccc2nc(N)c3c(c2c1)CO[C@@H]3C)[C@H]1COc2cc(C(F)(F)F)ccc21 (single isomer, unassigned) [Example 540] | 722 | 18600
5 | CN(C(=O)c1cc2c3c(c(N)nc2cn1)COC3)[C@@H]1COc2cc(C(F)(F)F)ncc21 (single isomer, unassigned) [Example 542] | 785 | 46000
6 | CCN(C(=O)c1cc2c3c(c(N)nc2cn1)COC3)[C@H]1COc2cc(C(F)(F)F)ccc21 (single isomer, unassigned) [Example 544] | 5230 | 15200
7 | CN(C(=O)c1cc2c3c(c(N)nc2cn1)COC3)[C@H]1COc2cc(C(F)(F)F)cc(F)c21 (single isomer, unassigned) [Example 546] | 9590 | 30700
8 | Nc1nc2cnc(C(=O)N(C3CC3)[C@@H]3COc4cc(C(F)(F)F)ccc43)cc2c2c1COC2 (single isomer, unassigned) [Example 547] | 122 | 2460
9 | CN(C(=O)c1cc2c3c(c(N)nc2cc1F)COC3)[C@H]1COc2cc(C(F)(F)F)ccc21 (single isomer, unassigned) [Example 553] | 1380 | 11400
10 | Nc1nc2cc(F)c(C(=O)N(C3CC3)[C@H]3COc4cc(C(F)(F)F)ccc43)cc2c2c1COC2 (single isomer, unassigned) [Example 555] | 1620 | 13300
11 | Nc1nc2cc(F)c(C(=O)N(CC3CC3)[C@H]3COc4cc(C(F)(F)F)ccc43)cc2c2c1COC2 (single isomer, unassigned) [Example 557] | 665 | 10500
12 | CN(C(=O)c1cc2c3c(c(N)nc2cc1Cl)COC3)[C@H]1CCc2nc(C(F)(F)F)ccc21 (single isomer, unassigned) [Example 559] | 1280 | 41400
13 | CN(C(=O)c1cc2c3c(c(N)nc2cc1Cl)COC3)[C@H]1COc2cc(C(F)(F)F)ccc21 (single isomer, unassigned) [Example 561] | 657 | 10800
14 | CN(C(=O)c1cc2c3c(c(N)nc2cc1Cl)COC3)[C@H]1COc2nc(C(F)(F)F)ccc21 (single isomer, unassigned) [Example 563] | 1960 | 25100
15 | CN(C(=O)c1cc2c3c(c(N)nc2cc1Cl)COC3)[C@H]1COc2cc(S(C)(=O)=O)ccc21 (single isomer, unassigned) [Example 565] | 858 | 15000
16 | CN(C(=O)c1cc2c3c(c(N)nc2cc1Cl)COC3)[C@H]1COc2cc(C(F)(F)F)cc(F)c21 (single isomer, unassigned) [Example 567] | 313 | 9870
17 | CN(C(=O)c1cc2c(cn1)nc(N)c1cnn(C)c12)[C@@H]1COc2cc(C(F)(F)F)ncc21 (single isomer, unassigned) [Example 568] | 97 | 5800
18 | CN(C(=O)c1cc2c(cc1F)nc(N)c1cnn(C)c12)[C@H]1COc2cc(OC(F)F)ccc21 (single isomer, unassigned) [Example 570] | 134 | 9210

Compounds with a lower IC50 [1], results first:

Row | IC50 [1] [nM] | IC50 [2] [nM] | Compound
19 | 7 | 198 | Nc1nc2ccc(C(=O)N(CC3CC3)[C@@H]3COc4cc(C(F)(F)F)ccc43)cc2c2c1COC2 (single isomer, unassigned) [Example 535]
20 | 21 | 881 | C[C@H]1OCc2c1c(N)nc1ccc(C(=O)N(C)[C@@H]3COc4cc(C(F)(F)F)ccc43)cc21 (single isomer, unassigned) [Example 537]
21 | 15 | 663 | CCN(C(=O)c1ccc2nc(N)c3c(c2c1)CO[C@@H]3C)[C@@H]1COc2cc(C(F)(F)F)ccc21 (single isomer, unassigned) [Example 539]
22 | 77 | 3800 | CN(C(=O)c1cc2c3c(c(N)nc2cn1)COC3)[C@@H]1COc2cc(C#N)ccc21 (single isomer, unassigned) [Example 541]
23 | 49 | 1460 | CCN(C(=O)c1cc2c3c(c(N)nc2cn1)COC3)[C@@H]1COc2cc(C(F)(F)F)ccc21 (single isomer, unassigned) [Example 543]
24 | 68 | 3250 | CN(C(=O)c1cc2c3c(c(N)nc2cn1)COC3)[C@@H]1COc2cc(C(F)(F)F)cc(F)c21 (single isomer, unassigned) [Example 545]
25 | 58 | 3060 | CN(C(=O)c1cc2c3c(c(N)nc2cn1)COC3)[C@@H]1COc2cc(Cl)c(C(F)(F)F)cc21 (single isomer, unassigned) [Example 548]
26 | 17 | 1340 | CN(C(=O)c1cc2c3c(c(N)nc2cc1F)COC3)[C@@H]1COc2cc(C#N)ccc21 (single isomer, unassigned) [Example 551]
27 | 34 | 1220 | CN(C(=O)c1cc2c3c(c(N)nc2cc1F)COC3)[C@@H]1COc2cc(C(F)(F)F)ccc21 (single isomer, unassigned) [Example 552]
28 | 21 | 1400 | Nc1nc2cc(F)c(C(=O)N(C3CC3)[C@@H]3COc4cc(C(F)(F)F)ccc43)cc2c2c1COC2 (single isomer, unassigned) [Example 554]
29 | 11 | 133 | Nc1nc2cc(F)c(C(=O)N(CC3CC3)[C@@H]3COc4cc(C(F)(F)F)ccc43)cc2c2c1COC2 (single isomer, unassigned) [Example 556]
30 | 17 | 941 | CN(C(=O)c1cc2c3c(c(N)nc2cc1Cl)COC3)[C@@H]1CCc2nc(C(F)(F)F)ccc21 (single isomer, unassigned) [Example 558]
31 | 12 | 594 | CN(C(=O)c1cc2c3c(c(N)nc2cc1Cl)COC3)[C@@H]1COc2cc(C(F)(F)F)ccc21 (single isomer, unassigned) [Example 560]
32 | 26 | 1820 | CN(C(=O)c1cc2c3c(c(N)nc2cc1Cl)COC3)[C@@H]1COc2nc(C(F)(F)F)ccc21 (single isomer, unassigned) [Example 562]
33 | 19 | 925 | CN(C(=O)c1cc2c3c(c(N)nc2cc1Cl)COC3)[C@@H]1COc2cc(S(C)(=O)=O)ccc21 (single isomer, unassigned) [Example 564]
34 | 13 | 447 | CN(C(=O)c1cc2c3c(c(N)nc2cc1Cl)COC3)[C@@H]1COc2cc(C(F)(F)F)cc(F)c21 (single isomer, unassigned) [Example 566]
35 | 6 | 222 | CN(C(=O)c1cc2c(cc1F)nc(N)c1cnn(C)c12)[C@@H]1COc2cc(OC(F)F)ccc21 (single isomer, unassigned) [Example 569]
